How the values were obtained:
[1] = system: Human acute T lymphocytic leukemia cells (Molt-4); test: Tumor cell proliferation inhibition (CellTiter-Meiluncell Luminescent Cell Viability Assay), Molt-4; details: for inhibition at 0.01 µM: MOLT-4, read-out: Inhibition rate (%) at 10 nM; for inhibition at 0.5 µM: MOLT-4, read-out: Inhibition rate (%) at 500 nM
[2] = system: Human breast cancer cells (MDA-MB-231); test: Tumor cell proliferation inhibition (CellTiter-Meiluncell Luminescent Cell Viability Assay), MDA-MB-231; details: for inhibition at 0.01 µM: MDA-MB-231, read-out: Inhibition rate (%) at 10 nM; for inhibition at 0.5 µM: MDA-MB-231, read-out: Inhibition rate (%) at 500 nM
[3] = molecular target: T1, WEE1 (Homo sapiens, UniProt P30291+Q96SW2); test: Western-blot assay of substrate protein degradation in hPBMCs, WEE1; assay type: cell-based; details: 24 hours of compound treatment, 50 nM and 500 nM tested (concentration behind the class not stated)
T1 construct: endogenous in cells; host or cells: hPBMCs (Milecell Biotechnologies)

[4] = molecular target: T2, GSPT1 (Homo sapiens, UniProt P15170+Q96SW2); test: Western-blot assay of substrate protein degradation in hPBMCs, GSPT1; assay type: cell-based; details: 24 hours of compound treatment, 50 nM and 500 nM tested (concentration behind the class not stated)
T2 construct: endogenous in cells; host or cells: hPBMCs (Milecell Biotechnologies)

[5] = molecular target: T3, IKZF1 (Homo sapiens, UniProt Q13422+Q96SW2); test: Western-blot assay of substrate protein degradation in hPBMCs, IKZF1; assay type: cell-based; details: 24 hours of compound treatment, 50 nM and 500 nM tested (concentration behind the class not stated)
T3 construct: endogenous in cells; host or cells: hPBMCs (Milecell Biotechnologies)

[6] = molecular target: T4, IKZF3 (Homo sapiens, UniProt Q96SW2+Q9UKT9); test: Western-blot assay of substrate protein degradation in hPBMCs, IKZF3; assay type: cell-based; details: 24 hours of compound treatment, 50 nM and 500 nM tested (concentration behind the class not stated)
T4 construct: endogenous in cells; host or cells: hPBMCs (Milecell Biotechnologies)

[7] = molecular target: T5, IKZF2 (Homo sapiens, UniProt Q96SW2+Q9UKS7); test: Western-blot assay of substrate protein degradation in hPBMCs, IKZF2; assay type: cell-based; details: 24 hours of compound treatment, 50 nM and 500 nM tested (concentration behind the class not stated)
T5 construct: endogenous in cells; host or cells: hPBMCs (Milecell Biotechnologies)

[8] = system: Kasumi-1; test: Tumor cell proliferation inhibition (CellTiter-Meiluncell Luminescent Cell Viability Assay), Kasumi-1; details: Homo sapiens; for inhibition at 0.01 µM: Kasumi 1, read-out: Inhibition rate (%) at 10 nM; for inhibition at 0.5 µM: Kasumi 1, read-out: Inhibition rate (%) at 500 nM
Protocol: On the following day, the test compounds of the present disclosure were subjected to serial dilution. […] Subsequently, 0.5 µL of the test compound dilution was transferred into the 96-well plate containing the cells, with each well containing 100 µL of cell culture medium. […] Into the 96-well plate, the diluted test compounds and corresponding detection reagents were added, resulting in final test compound concentrations of 500 nM and 10 nM, respectively. The experimental procedure is described below using the diluted 2 µM test compound as an example.
After the cells were treated with the compounds of the present disclosure for a specified period (the treatment durations were shown in Table 3), the cell viability assay reagent was added to the culture medium according to the kit's instructions to determine cell viability. […] All controls were treated using the same procedure as the compounds of the present disclosure. The growth inhibition curves for the compounds of the present disclosure were plotted using Prism GraphPad software, and the IC50 values were calculated therefrom.

[9] = system: CCRF-CEM; test: Tumor cell proliferation inhibition (CellTiter-Meiluncell Luminescent Cell Viability Assay), CCRF-CEM; details: Homo sapiens; for inhibition at 0.01 µM: read-out: Inhibition rate (%) at 10 nM; for inhibition at 0.5 µM: read-out: Inhibition rate (%) at 500 nM
[10] = molecular target: T6, CK1α (Homo sapiens, UniProt P48729+Q96SW2); test: Western-blot assay of substrate protein degradation in hPBMCs, CK1α; assay type: cell-based; details: 24 hours of compound treatment, 50 nM and 500 nM tested (concentration behind the class not stated)
T6 construct: endogenous in cells; host or cells: hPBMCs (Milecell Biotechnologies)
T6 sequence (P48729 whole entry): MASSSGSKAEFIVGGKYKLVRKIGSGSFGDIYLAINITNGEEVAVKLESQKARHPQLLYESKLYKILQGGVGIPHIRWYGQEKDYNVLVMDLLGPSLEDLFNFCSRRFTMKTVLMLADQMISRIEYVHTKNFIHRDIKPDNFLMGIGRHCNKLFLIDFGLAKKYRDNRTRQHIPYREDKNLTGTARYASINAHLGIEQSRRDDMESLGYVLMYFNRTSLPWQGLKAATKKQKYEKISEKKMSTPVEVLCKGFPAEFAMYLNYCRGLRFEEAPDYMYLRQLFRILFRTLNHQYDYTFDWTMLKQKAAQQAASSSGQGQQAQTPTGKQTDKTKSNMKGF
T6 sequence (Q96SW2 whole entry): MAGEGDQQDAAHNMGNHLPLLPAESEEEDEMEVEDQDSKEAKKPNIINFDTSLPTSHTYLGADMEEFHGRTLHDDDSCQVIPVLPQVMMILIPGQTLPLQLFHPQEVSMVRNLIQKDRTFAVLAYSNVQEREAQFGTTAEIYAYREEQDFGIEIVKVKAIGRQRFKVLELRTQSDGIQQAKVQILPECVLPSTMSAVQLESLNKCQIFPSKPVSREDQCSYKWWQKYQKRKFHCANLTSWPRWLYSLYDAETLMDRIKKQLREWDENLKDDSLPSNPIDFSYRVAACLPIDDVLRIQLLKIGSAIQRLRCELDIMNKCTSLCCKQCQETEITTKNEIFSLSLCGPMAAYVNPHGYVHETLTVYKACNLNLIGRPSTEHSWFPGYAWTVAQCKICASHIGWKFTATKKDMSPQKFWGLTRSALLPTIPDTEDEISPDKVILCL
T6 sequence (Q16531 whole entry partner): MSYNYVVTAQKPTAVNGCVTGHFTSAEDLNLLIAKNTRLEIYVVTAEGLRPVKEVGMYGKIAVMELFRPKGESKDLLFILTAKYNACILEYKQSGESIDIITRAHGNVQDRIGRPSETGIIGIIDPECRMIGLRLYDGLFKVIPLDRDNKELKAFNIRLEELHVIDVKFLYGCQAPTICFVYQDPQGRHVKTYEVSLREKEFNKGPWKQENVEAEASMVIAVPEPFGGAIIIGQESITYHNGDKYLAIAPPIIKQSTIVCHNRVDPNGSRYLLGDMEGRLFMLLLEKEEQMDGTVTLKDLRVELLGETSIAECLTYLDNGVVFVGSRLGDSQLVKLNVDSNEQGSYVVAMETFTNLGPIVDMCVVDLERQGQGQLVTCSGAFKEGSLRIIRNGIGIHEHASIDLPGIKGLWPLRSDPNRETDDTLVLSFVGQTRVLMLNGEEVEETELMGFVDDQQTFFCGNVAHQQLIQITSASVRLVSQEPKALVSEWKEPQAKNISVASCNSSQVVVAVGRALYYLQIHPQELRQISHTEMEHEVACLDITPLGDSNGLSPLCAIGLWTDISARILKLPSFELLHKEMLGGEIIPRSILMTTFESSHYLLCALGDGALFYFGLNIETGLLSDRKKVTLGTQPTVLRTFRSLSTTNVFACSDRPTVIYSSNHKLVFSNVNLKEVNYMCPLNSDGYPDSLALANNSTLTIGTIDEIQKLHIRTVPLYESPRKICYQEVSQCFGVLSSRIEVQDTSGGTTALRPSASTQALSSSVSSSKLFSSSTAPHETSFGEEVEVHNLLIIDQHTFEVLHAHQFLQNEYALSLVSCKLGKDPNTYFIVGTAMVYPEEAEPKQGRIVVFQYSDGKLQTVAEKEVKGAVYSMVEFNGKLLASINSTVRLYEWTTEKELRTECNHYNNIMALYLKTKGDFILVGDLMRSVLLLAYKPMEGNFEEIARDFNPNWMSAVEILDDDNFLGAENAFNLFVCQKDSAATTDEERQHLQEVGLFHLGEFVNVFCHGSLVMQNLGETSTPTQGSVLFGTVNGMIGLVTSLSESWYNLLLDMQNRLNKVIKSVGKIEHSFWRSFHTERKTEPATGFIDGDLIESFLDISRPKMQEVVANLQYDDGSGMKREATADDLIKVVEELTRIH

T5 sequence (Q9UKS7 whole entry): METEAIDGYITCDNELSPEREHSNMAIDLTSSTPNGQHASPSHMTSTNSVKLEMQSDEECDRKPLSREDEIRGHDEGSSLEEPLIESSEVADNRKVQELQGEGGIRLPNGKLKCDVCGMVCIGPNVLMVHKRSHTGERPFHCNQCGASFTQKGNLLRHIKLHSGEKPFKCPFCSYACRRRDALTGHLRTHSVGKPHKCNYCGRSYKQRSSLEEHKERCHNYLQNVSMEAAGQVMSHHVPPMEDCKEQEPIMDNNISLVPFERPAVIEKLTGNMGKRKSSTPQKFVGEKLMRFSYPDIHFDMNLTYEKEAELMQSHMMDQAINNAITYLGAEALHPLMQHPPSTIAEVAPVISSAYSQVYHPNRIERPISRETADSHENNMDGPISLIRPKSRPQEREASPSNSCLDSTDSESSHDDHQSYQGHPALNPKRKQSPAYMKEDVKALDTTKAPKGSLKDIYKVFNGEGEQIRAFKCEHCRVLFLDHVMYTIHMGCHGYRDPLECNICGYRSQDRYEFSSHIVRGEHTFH
T5 sequence (Q96SW2 whole entry): as the sequence (Q96SW2 whole entry) above
T5 sequence (Q16531 whole entry partner): as the sequence (Q16531 whole entry partner) above
T1 sequence (P30291 whole entry): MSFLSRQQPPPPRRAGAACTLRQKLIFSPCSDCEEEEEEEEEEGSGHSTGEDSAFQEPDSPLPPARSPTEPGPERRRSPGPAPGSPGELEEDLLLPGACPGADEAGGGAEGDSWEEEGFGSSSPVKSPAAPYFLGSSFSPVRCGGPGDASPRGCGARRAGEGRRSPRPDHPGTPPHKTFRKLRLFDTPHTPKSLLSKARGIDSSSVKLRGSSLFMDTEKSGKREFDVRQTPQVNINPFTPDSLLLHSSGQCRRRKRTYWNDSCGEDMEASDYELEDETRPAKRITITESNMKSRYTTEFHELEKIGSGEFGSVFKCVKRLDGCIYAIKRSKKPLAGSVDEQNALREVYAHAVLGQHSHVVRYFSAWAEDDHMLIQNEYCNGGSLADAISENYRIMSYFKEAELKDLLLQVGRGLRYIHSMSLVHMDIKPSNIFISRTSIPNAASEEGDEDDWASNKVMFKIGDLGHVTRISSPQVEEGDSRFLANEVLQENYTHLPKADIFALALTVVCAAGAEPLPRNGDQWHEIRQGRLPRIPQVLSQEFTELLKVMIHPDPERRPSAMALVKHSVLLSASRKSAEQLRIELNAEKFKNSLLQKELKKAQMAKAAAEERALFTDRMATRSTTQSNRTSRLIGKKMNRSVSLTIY
T1 sequence (Q96SW2 whole entry): as the sequence (Q96SW2 whole entry) above
T1 sequence (Q16531 whole entry partner): as the sequence (Q16531 whole entry partner) above
T3 sequence (Q13422 whole entry): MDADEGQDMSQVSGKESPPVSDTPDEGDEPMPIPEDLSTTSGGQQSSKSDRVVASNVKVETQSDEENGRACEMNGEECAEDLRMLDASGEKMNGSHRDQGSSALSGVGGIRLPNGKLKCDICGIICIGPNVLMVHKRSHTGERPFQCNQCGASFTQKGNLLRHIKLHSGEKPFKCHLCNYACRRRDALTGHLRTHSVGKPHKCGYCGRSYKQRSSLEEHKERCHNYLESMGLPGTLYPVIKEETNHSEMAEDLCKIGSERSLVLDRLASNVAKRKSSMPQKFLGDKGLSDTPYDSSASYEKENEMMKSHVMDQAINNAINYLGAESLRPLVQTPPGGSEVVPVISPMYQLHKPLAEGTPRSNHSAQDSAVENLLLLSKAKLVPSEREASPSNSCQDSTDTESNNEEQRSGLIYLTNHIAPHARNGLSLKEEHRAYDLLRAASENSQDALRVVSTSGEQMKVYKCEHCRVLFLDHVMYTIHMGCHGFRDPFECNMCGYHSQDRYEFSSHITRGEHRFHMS
T3 sequence (Q96SW2 whole entry): as the sequence (Q96SW2 whole entry) above
T3 sequence (Q16531 whole entry partner): as the sequence (Q16531 whole entry partner) above
T2 sequence (P15170 whole entry): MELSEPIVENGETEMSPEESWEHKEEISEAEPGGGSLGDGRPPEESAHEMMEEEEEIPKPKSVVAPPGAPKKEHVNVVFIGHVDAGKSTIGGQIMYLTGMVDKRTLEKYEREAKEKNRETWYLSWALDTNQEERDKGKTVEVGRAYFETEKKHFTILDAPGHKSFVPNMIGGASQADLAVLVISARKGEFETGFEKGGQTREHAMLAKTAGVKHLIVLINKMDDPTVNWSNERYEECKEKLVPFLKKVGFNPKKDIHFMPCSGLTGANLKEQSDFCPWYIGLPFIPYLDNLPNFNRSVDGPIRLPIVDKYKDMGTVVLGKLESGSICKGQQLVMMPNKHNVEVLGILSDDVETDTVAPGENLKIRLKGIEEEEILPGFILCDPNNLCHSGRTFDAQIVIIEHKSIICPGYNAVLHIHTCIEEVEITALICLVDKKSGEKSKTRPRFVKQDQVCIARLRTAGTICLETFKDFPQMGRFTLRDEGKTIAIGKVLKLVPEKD
T2 sequence (Q96SW2 whole entry): as the sequence (Q96SW2 whole entry) above
T2 sequence (Q16531 whole entry partner): as the sequence (Q16531 whole entry partner) above

Q: For `O=C1CCC(N2C(=O)c3ccc(CN4CC=C(c5cccc(Cl)c5Cl)CC4)cc3C2=O)C(=O)N1` (stereo not drawn) [GT-07842, 5-((4-(2,3-dichlorophenyl)-3,6-dihydropyridin-1(2H)-yl)methyl)-2-(2,6-dioxopiperidin-3-yl)isoindoline-1,3-dione], which inhibition at 0.01 µM [1] is on record?
A: Its inhibition at 0.01 µM is 20 to 30%.

Q: And the inhibition at 0.5 µM [1]?
A: Its inhibition at 0.5 µM is 80 to 90%.

Q: And the inhibition at 0.01 µM [2]?
A: The inhibition at 0.01 µM was 20 to 30%.

Q: And the inhibition at 0.5 µM [2]?
A: The inhibition at 0.5 µM was 20 to 30%.

Q: What about the “Weel substrate protein remaining %” value [3] of the same compound?
A: Its value is “B (80%< substrate protein remaining %≤ 100%)”.

Q: What about the “GSPT1 substrate protein remaining %” value [4] of the same compound?
A: Its value is “A (0% ≤ substrate protein remaining % ≤ 80%)”.

Q: And the “IKZF 1 substrate protein remaining %” value [5]?
A: Its value is “A (0% ≤ substrate protein remaining % ≤ 80%)”.

Q: And the “IKZF3 substrate protein remaining %” value [6]?
A: Its value is “A (0% ≤ substrate protein remaining % ≤ 80%)”.

Q: What about the “IKZF2 substrate protein remaining %” value [7] of the same compound?
A: Its value is “A (0% ≤ substrate protein remaining % ≤ 80%)”.

Q: What about the inhibition at 0.01 µM [8] of the same compound?
A: The inhibition at 0.01 µM was 30 to 40%.

Q: And the inhibition at 0.5 µM [8]?
A: The inhibition at 0.5 µM was 40 to 50%.

Q: And the inhibition at 0.01 µM [9]?
A: Its inhibition at 0.01 µM is 20 to 30%.

Q: What about the inhibition at 0.5 µM [9] of the same compound?
A: Its inhibition at 0.5 µM is 90 to 100%.

Q: What about the “CK1a substrate protein remaining %” value [10] of the same compound?
A: The value was “B (80%< substrate protein remaining %≤ 100%)”.

Q: How did the inhibition at 0.01 µM [1] turn out when `O=C1CCC(N2C(=O)c3ccc(CN4CCN(c5nc(N6CCCCC6)nc6c5SCC6)CC4)cc3C2=O)C(=O)N1` (stereo not drawn) [GT-08003, 2-(2,6-dioxopiperidin-3-yl)-5-((4-(2-(piperidin-1-yl)-6,7-dihydrothieno[3,2-d]pyrimidin-4-yl)piperazin-1-yl)methyl)isoindoline-1,3-dione] was run?
A: Its inhibition at 0.01 µM is 20 to 30%.

Q: What about the inhibition at 0.5 µM [1] of the same compound?
A: Its inhibition at 0.5 µM is 90 to 100%.

Q: And the inhibition at 0.01 µM [2]?
A: Its inhibition at 0.01 µM is 30 to 40%.

Q: What about the inhibition at 0.5 µM [2] of the same compound?
A: The inhibition at 0.5 µM was 30 to 40%.

Q: And the “Weel substrate protein remaining %” value [3]?
A: The value was “B (80%< substrate protein remaining %≤ 100%)”.

Q: What about the “GSPT1 substrate protein remaining %” value [4] of the same compound?
A: The value was “A (0% ≤ substrate protein remaining % ≤ 80%)”.

Q: And the “IKZF 1 substrate protein remaining %” value [5]?
A: The value was “A (0% ≤ substrate protein remaining % ≤ 80%)”.

Q: And the “IKZF3 substrate protein remaining %” value [6]?
A: Its value is “A (0% ≤ substrate protein remaining % ≤ 80%)”.

Q: What about the “IKZF2 substrate protein remaining %” value [7] of the same compound?
A: Its value is “A (0% ≤ substrate protein remaining % ≤ 80%)”.

Q: What about the inhibition at 0.01 µM [8] of the same compound?
A: Its inhibition at 0.01 µM is 5 to 10%.

Q: And the inhibition at 0.5 µM [8]?
A: Its inhibition at 0.5 µM is 80 to 90%.

Q: What about the inhibition at 0.01 µM [9] of the same compound?
A: Its inhibition at 0.01 µM is 20 to 30%.

Q: And the inhibition at 0.5 µM [9]?
A: Its inhibition at 0.5 µM is 90 to 100%.

Q: And the “CK1a substrate protein remaining %” value [10]?
A: The value was “A (0% ≤ substrate protein remaining % ≤ 80%)”.

Q: Which inhibition at 0.01 µM [1] does the source give for `Nc1cccc2c1CN(C1CCC(=O)NC1=O)C2=O` (stereo not drawn) [lenalidomide, reference compound] here?
A: The inhibition at 0.01 µM was 15 to 20%.

Q: What about the inhibition at 0.5 µM [1] of the same compound?
A: The inhibition at 0.5 µM was 10 to 15%.

Q: What about the inhibition at 0.01 µM [2] of the same compound?
A: The inhibition at 0.01 µM was 15 to 20%.

Q: And the inhibition at 0.5 µM [2]?
A: Its inhibition at 0.5 µM is 10 to 15%.

Q: And the inhibition at 0.01 µM [8]?
A: Its inhibition at 0.01 µM is 5 to 10%.

Q: What about the inhibition at 0.5 µM [8] of the same compound?
A: Its inhibition at 0.5 µM is 0 to 5%.

Q: What about the inhibition at 0.01 µM [9] of the same compound?
A: The inhibition at 0.01 µM was 10 to 15%.

Q: What about the inhibition at 0.5 µM [9] of the same compound?
A: Its inhibition at 0.5 µM is 10 to 15%.

Source: EP4745137A1 (Gluetacs Therapeutics (Shanghai) Co., Ltd., priority 2023, dated 2025)
